The numbers were not newly measured in patent US9579322B2, “Methods for treating neurologic disorders” (EIP Pharma, LLC, priority 2014, dated 2017), which cites them from elsewhere.

The conditions of this data set: animals; cited from earlier work.

Turning to `NC(=O)c1ccc(N(C(N)=O)c2c(F)cccc2F)nc1-c1ccc(F)cc1F` [VX-702], the “blood brain barrier penetration” value is “non-blood-brain-barrier-penetrant”.
